According to the supplement of paper PMC10307832:

Tests used:
Assay in all cases: relative viability (nuclei count vs DMSO), 5 days (fraction); higher = more cells survive
[1] = compound: C=CC(=O)N1CCC[C@@H](n2nc(-c3ccc(Oc4ccccc4)cc3)c3c(N)ncnc32)C1 [Ibrutinib] + CC1(C)CCC(c2ccc(Cl)cc2)=C(CN2CCN(c3ccc(C(=O)NS(=O)(=O)c4ccc(N[C@H](CCN5CCOCC5)CSc5ccccc5)c(S(=O)(=O)C(F)(F)F)c4)cc3)CC2)C1 [Navitoclax] (partner 0.5 µM)
Method in brief: (§1)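 A single step with final 0.05% Triton X-100, 1% formaldehyde and 1 ug/ml Hoechst fixed the cells and stained nuclei 5 days after treatment. Lung cancer cell lines in 1536-well plates had been treated by pin tool the day after seeding with one drug alone or a fixed anchor-drug dose plus five library-drug doses (not always all listed) in √10 steps, and nuclei were counted on 4× images. Relative viability is the ratio of nuclei in treated wells to nuclei in vehicle wells, taken as the median of duplicate plates.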

[2] = compound: C=CC(=O)N1CCC[C@@H](n2nc(-c3ccc(Oc4ccccc4)cc3)c3c(N)ncnc32)C1 [Ibrutinib] + Cc1nc(NC(=O)N2CCC[C@H]2C(N)=O)sc1-c1ccnc(C(C)(C)C(F)(F)F)c1 [Alpelisib] (partner 2 µM)
Method in brief: as §1

[3] = compound: C=CC(=O)Nc1cc(-n2c(=O)ccc3cnc4ccc(-c5ccc(NS(C)(=O)=O)cc5)cc4c32)ccc1C [BMX-IN-1] + O=C(c1cc(Cc2n[nH]c(=O)c3ccccc23)ccc1F)N1CCN(C(=O)C2CC2)CC1 [Olaparib] (partner 8 µM)
Method in brief: as §1

[4] = compound: C=CC(=O)Nc1cc(-n2c(=O)ccc3cnc4ccc(-c5ccc(NS(C)(=O)=O)cc5)cc4c32)ccc1C [BMX-IN-1] + O=C(CCCCCCC(=O)Nc1ccccc1)NO [Vorinostat] (partner 1 µM)
Method in brief: as §1

NCI-H727
relative viability ([1]; first compound 0.005 µM): 0.475
relative viability ([1]; first compound 0.01581 µM): 0.405
relative viability ([1]; first compound 0.05 µM): 0.374
relative viability ([1]; first compound 0.1581 µM): 0.449
relative viability ([1]; first compound 0.5 µM): 0.42
relative viability ([2]; first compound 0.005 µM): 0.519
relative viability ([2]; first compound 0.01581 µM): 0.556
relative viability ([2]; first compound 0.05 µM): 0.433
relative viability ([2]; first compound 0.1581 µM): 0.576
relative viability ([2]; first compound 0.5 µM): 0.435
relative viability ([3]; first compound 0.02 µM): 0.555
relative viability ([3]; first compound 0.2 µM): 0.642
relative viability ([3]; first compound 0.6325 µM): 0.703
relative viability ([3]; first compound 2 µM): 0.688
relative viability ([4]; first compound 0.02 µM): 1.11
relative viability ([4]; first compound 0.2 µM): 1.3
relative viability ([4]; first compound 0.6325 µM): 1.29
relative viability ([4]; first compound 2 µM): 1.2

COR-L23
relative viability ([1]; first compound 0.005 µM): 1.14
relative viability ([1]; first compound 0.01581 µM): 1
relative viability ([1]; first compound 0.05 µM): 1.04
relative viability ([1]; first compound 0.1581 µM): 1.16
relative viability ([1]; first compound 0.5 µM): 1.11
relative viability ([2]; first compound 0.005 µM): 0.947
relative viability ([2]; first compound 0.01581 µM): 0.702
relative viability ([2]; first compound 0.05 µM): 0.73
relative viability ([2]; first compound 0.1581 µM): 0.775
relative viability ([2]; first compound 0.5 µM): 0.865
relative viability ([3]; first compound 0.02 µM): 0.286
relative viability ([3]; first compound 0.2 µM): 0.373
relative viability ([3]; first compound 0.6325 µM): 0.439
relative viability ([3]; first compound 2 µM): 0.327
relative viability ([4]; first compound 0.02 µM): 0.448
relative viability ([4]; first compound 0.2 µM): 0.524
relative viability ([4]; first compound 0.6325 µM): 0.635
relative viability ([4]; first compound 2 µM): 0.421

NCI-H3122
relative viability ([1]; first compound 0.005 µM): 1.06
relative viability ([1]; first compound 0.01581 µM): 0.971
relative viability ([1]; first compound 0.05 µM): 1.06
relative viability ([1]; first compound 0.1581 µM): 0.956
relative viability ([1]; first compound 0.5 µM): 1.06
relative viability ([2]; first compound 0.005 µM): 0.686
relative viability ([2]; first compound 0.01581 µM): 0.743
relative viability ([2]; first compound 0.05 µM): 0.873
relative viability ([2]; first compound 0.1581 µM): 0.583
relative viability ([2]; first compound 0.5 µM): 0.711
relative viability ([3]; first compound 0.02 µM): 0.678
relative viability ([3]; first compound 0.2 µM): 0.781
relative viability ([3]; first compound 0.6325 µM): 0.672
relative viability ([3]; first compound 2 µM): 0.64
relative viability ([4]; first compound 0.02 µM): 0.938
relative viability ([4]; first compound 0.2 µM): 1.1
relative viability ([4]; first compound 0.6325 µM): 0.902
relative viability ([4]; first compound 2 µM): 1.14

NCI-H322M
relative viability ([1]; first compound 0.005 µM): 1.21
relative viability ([1]; first compound 0.01581 µM): 1.18
relative viability ([1]; first compound 0.05 µM): 1.26
relative viability ([1]; first compound 0.1581 µM): 1.25
relative viability ([1]; first compound 0.5 µM): 0.724
relative viability ([2]; first compound 0.005 µM): 0.752
relative viability ([2]; first compound 0.01581 µM): 0.807
relative viability ([2]; first compound 0.05 µM): 0.779
relative viability ([2]; first compound 0.1581 µM): 0.838
relative viability ([2]; first compound 0.5 µM): 0.486
relative viability ([3]; first compound 0.02 µM): 0.781
relative viability ([3]; first compound 0.2 µM): 0.836
relative viability ([3]; first compound 0.6325 µM): 0.77
relative viability ([3]; first compound 2 µM): 0.72
relative viability ([4]; first compound 0.02 µM): 0.872
relative viability ([4]; first compound 0.2 µM): 0.983
relative viability ([4]; first compound 0.6325 µM): 1.01
relative viability ([4]; first compound 2 µM): 0.876

HCC-44
relative viability ([1]; first compound 0.005 µM): 0.977
relative viability ([1]; first compound 0.01581 µM): 0.913
relative viability ([1]; first compound 0.05 µM): 0.935
relative viability ([1]; first compound 0.1581 µM): 0.995
relative viability ([1]; first compound 0.5 µM): 0.919
relative viability ([2]; first compound 0.005 µM): 0.864
relative viability ([2]; first compound 0.01581 µM): 0.658
relative viability ([2]; first compound 0.05 µM): 0.874
relative viability ([2]; first compound 0.1581 µM): 0.87
relative viability ([2]; first compound 0.5 µM): 0.724
relative viability ([3]; first compound 0.02 µM): 1.02
relative viability ([3]; first compound 0.2 µM): 0.994
relative viability ([3]; first compound 0.6325 µM): 1.03
relative viability ([3]; first compound 2 µM): 1.07
relative viability ([4]; first compound 0.02 µM): 1.16
relative viability ([4]; first compound 0.2 µM): 1.14
relative viability ([4]; first compound 0.6325 µM): 1.19
relative viability ([4]; first compound 2 µM): 1.12

NCI-H441
relative viability ([1]; first compound 0.005 µM): 0.561
relative viability ([1]; first compound 0.01581 µM): 0.556
relative viability ([1]; first compound 0.05 µM): 0.601
relative viability ([1]; first compound 0.1581 µM): 0.731
relative viability ([1]; first compound 0.5 µM): 0.733
relative viability ([2]; first compound 0.005 µM): 0.908
relative viability ([2]; first compound 0.01581 µM): 0.54
relative viability ([2]; first compound 0.05 µM): 0.868
relative viability ([2]; first compound 0.1581 µM): 0.871
relative viability ([2]; first compound 0.5 µM): 0.711
relative viability ([3]; first compound 0.02 µM): 0.52
relative viability ([3]; first compound 0.2 µM): 0.658
relative viability ([3]; first compound 0.6325 µM): 0.619
relative viability ([3]; first compound 2 µM): 0.591
relative viability ([4]; first compound 0.02 µM): 0.691
relative viability ([4]; first compound 0.2 µM): 1.03
relative viability ([4]; first compound 0.6325 µM): 0.903
relative viability ([4]; first compound 2 µM): 0.778

NCI-H2347
relative viability ([1]; first compound 0.005 µM): 0.898
relative viability ([1]; first compound 0.01581 µM): 0.724
relative viability ([1]; first compound 0.05 µM): 0.846
relative viability ([1]; first compound 0.1581 µM): 0.729
relative viability ([1]; first compound 0.5 µM): 0.717
relative viability ([2]; first compound 0.005 µM): 1
relative viability ([2]; first compound 0.01581 µM): 1.1
relative viability ([2]; first compound 0.05 µM): 0.933
relative viability ([2]; first compound 0.1581 µM): 1.01
relative viability ([2]; first compound 0.5 µM): 1.12
relative viability ([3]; first compound 0.02 µM): 0.523
relative viability ([3]; first compound 0.2 µM): 0.603
relative viability ([3]; first compound 0.6325 µM): 0.597
relative viability ([3]; first compound 2 µM): 0.573
relative viability ([4]; first compound 0.02 µM): 0.725
relative viability ([4]; first compound 0.2 µM): 0.716
relative viability ([4]; first compound 0.6325 µM): 0.586
relative viability ([4]; first compound 2 µM): 0.596

HCC-827
relative viability ([1]; first compound 0.005 µM): 1.01
relative viability ([1]; first compound 0.01581 µM): 0.995
relative viability ([1]; first compound 0.05 µM): 1.08
relative viability ([1]; first compound 0.1581 µM): 1.04
relative viability ([1]; first compound 0.5 µM): 0.434
relative viability ([2]; first compound 0.005 µM): 0.952
relative viability ([2]; first compound 0.01581 µM): 0.819
relative viability ([2]; first compound 0.05 µM): 0.901
relative viability ([2]; first compound 0.1581 µM): 0.992
relative viability ([2]; first compound 0.5 µM): 0.278
relative viability ([3]; first compound 0.02 µM): 0.597
relative viability ([3]; first compound 0.2 µM): 0.635
relative viability ([3]; first compound 0.6325 µM): 0.652
relative viability ([3]; first compound 2 µM): 0.629
relative viability ([4]; first compound 0.02 µM): 0.485
relative viability ([4]; first compound 0.2 µM): 0.872
relative viability ([4]; first compound 0.6325 µM): 1.11
relative viability ([4]; first compound 2 µM): 0.798

LOU-NH91
relative viability ([1]; first compound 0.005 µM): 0.601
relative viability ([1]; first compound 0.01581 µM): 0.572
relative viability ([1]; first compound 0.05 µM): 0.549
relative viability ([1]; first compound 0.1581 µM): 0.585
relative viability ([1]; first compound 0.5 µM): 0.407
relative viability ([2]; first compound 0.005 µM): 0.652
relative viability ([2]; first compound 0.01581 µM): 0.597
relative viability ([2]; first compound 0.05 µM): 0.592
relative viability ([2]; first compound 0.1581 µM): 0.67
relative viability ([2]; first compound 0.5 µM): 0.48
relative viability ([3]; first compound 0.2 µM): 0.978
relative viability ([3]; first compound 0.6325 µM): 0.946
relative viability ([3]; first compound 2 µM): 0.862
relative viability ([4]; first compound 0.2 µM): 0.939
relative viability ([4]; first compound 0.6325 µM): 1.05
relative viability ([4]; first compound 2 µM): 0.915
